From ChEMBL document CHEMBL1201862, “PubChem BioAssay data set” (2004)
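A five-concentration, 48-hour dose response in 96-well plates underlies each endpoint, interpolated linearly between surrounding concentrations. At the GI50, growth is halved.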 Activity calls are given as the source filed them. Rule as the data show it: active = GI50 up to about 1.1 µM and inactive = higher.

Legend:
Test in all cases: NCI anticancer screen, dose series, 48 h
786-0 = system: 786-0
A498 = system: A498
A549 = system: A549
ACHN = system: ACHN
CAKI-1 = system: CAKI-1
CCRF-CEM = system: CCRF-CEM
COLO 205 = system: COLO 205
DLD-1 = system: DLD-1
DMS-114 = system: DMS-114
EKVX = system: EKVX
HCC 2998 = system: HCC 2998
HCT-116 = system: HCT-116
HL-60 = system: HL-60
HOP-18 = system: HOP-18
HOP-62 = system: HOP-62
HOP-92 = system: HOP-92
HT-29 = system: HT-29
IGROV-1 = system: IGROV-1
K562 = system: K562
KM-20L2 = system: KM-20L2
KM12 = system: KM12
LOX IMVI = system: LOX IMVI
LXFL 529 = system: LXFL 529
M14 = system: M14
M19-MEL = system: M19-MEL
MOLT-4 = system: MOLT-4
Malme-3M = system: Malme-3M
NCI-H226 = system: NCI-H226
NCI-H23 = system: NCI-H23
NCI-H460 = system: NCI-H460
NCI-H522 = system: NCI-H522
OVCAR-3 = system: OVCAR-3
OVCAR-4 = system: OVCAR-4
OVCAR-8 = system: OVCAR-8
RXF 393 = system: RXF 393
SF-268 = system: SF-268
SF-295 = system: SF-295
SF-539 = system: SF-539
SK-MEL-28 = system: SK-MEL-28
SK-MEL-5 = system: SK-MEL-5
SK-OV-3 = system: SK-OV-3
SN12C = system: SN12C
SNB-19 = system: SNB-19
SNB-75 = system: SNB-75
SNB-78 = system: SNB-78
SR = system: SR
SW-620 = system: SW-620
TK-10 = system: TK-10
U-251 = system: U-251
UACC-257 = system: UACC-257
UACC-62 = system: UACC-62
UO-31 = system: UO-31
XF498 = system: XF498
DMS-273 = system: DMS-273
HCT-15 = system: HCT-15
SK-MEL-2 = system: SK-MEL-2

Measured: GI50

CC(Oc1ccc2c(-c3ccccc3)cc(=O)oc2c1)C(=O)O (stereo not given)
inactive: 786-0 > 100 µM | A498 > 100 µM | A549 > 100 µM | ACHN > 100 µM | CAKI-1 > 100 µM | CCRF-CEM > 100 µM | COLO 205 > 100 µM | DLD-1 > 100 µM | DMS-114 > 100 µM | EKVX > 100 µM | HCC 2998 > 100 µM | HCT-116 > 100 µM | HL-60 > 100 µM | HOP-18 > 100 µM | HOP-62 > 100 µM | HOP-92 > 100 µM | HT-29 > 100 µM | IGROV-1 > 100 µM | K562 > 100 µM | KM-20L2 > 100 µM | KM12 > 100 µM | LOX IMVI > 100 µM | LXFL 529 > 100 µM | M14 > 100 µM | M19-MEL > 100 µM | MOLT-4 > 100 µM | Malme-3M > 100 µM | NCI-H226 > 100 µM | NCI-H23 > 100 µM | NCI-H460 > 100 µM | NCI-H522 > 100 µM | OVCAR-3 > 100 µM | OVCAR-4 > 100 µM | OVCAR-8 > 100 µM | RXF 393 > 100 µM | SF-268 > 100 µM | SF-295 > 100 µM | SF-539 > 100 µM | SK-MEL-28 > 100 µM | SK-MEL-5 > 100 µM | SK-OV-3 > 100 µM | SN12C > 100 µM | SNB-19 > 100 µM | SNB-75 > 100 µM | SNB-78 > 100 µM | SR > 100 µM | SW-620 > 100 µM | TK-10 > 100 µM | U-251 > 100 µM | UACC-257 > 100 µM | UACC-62 > 100 µM | UO-31 > 100 µM | XF498 > 100 µM

CC(Oc1ccc(OCC2CCCCC2)cc1)C(=O)N(CCO)CCO (stereo not given)
inactive: 786-0 > 100 µM | A498 > 100 µM | A549 > 100 µM | ACHN > 100 µM | CCRF-CEM > 100 µM | DMS-114 > 100 µM | DMS-273 > 100 µM | HCC 2998 32.9 µM | HCT-116 > 100 µM | HL-60 > 100 µM | HOP-18 > 100 µM | HT-29 > 100 µM | IGROV-1 > 100 µM | K562 > 100 µM | KM12 > 100 µM | LOX IMVI > 100 µM | LXFL 529 > 100 µM | M14 > 100 µM | M19-MEL > 100 µM | MOLT-4 > 100 µM | Malme-3M > 100 µM | NCI-H226 > 100 µM | NCI-H23 > 100 µM | NCI-H460 > 100 µM | NCI-H522 > 100 µM | OVCAR-3 > 100 µM | OVCAR-4 > 100 µM | OVCAR-8 > 100 µM | RXF 393 > 100 µM | SF-268 > 100 µM | SF-295 > 100 µM | SF-539 23.6 µM | SK-MEL-28 > 100 µM | SK-MEL-2 > 100 µM | SK-MEL-5 > 100 µM | SK-OV-3 > 100 µM | SN12C > 100 µM | SNB-19 > 100 µM | SNB-75 92.9 µM | SNB-78 > 100 µM | TK-10 > 100 µM | U-251 > 100 µM | UACC-257 > 100 µM | UACC-62 > 100 µM | UO-31 > 100 µM | XF498 > 100 µM
> 100 µM: HCT-15
